pEC50: −log10 of the molar value. Read-outs that look alike come from different tables or passages of the source.
How the values were obtained:
[1] = tested on: KNS62; assay: PKMYT1 siRNA knockdown proliferation assay (ViaLight, 72 hours); type: cell-based, human; conditions: for dose response curves in control (CT) versus PKMYT1 siRNA transfected cells / pEC50: 72 hours; for pEC50: Homo sapiens, KNS-62, 72 h, n=2, read-out: anti-proliferative EC50
Description: (§1) For the knockdown studies, NCI-H460 and KNS62, two non-small cell lung cancer cell lines, American Type Culture Collection, Manassas, Va., were transfected with siRNA pools (SMARTpool, Dharmacon, Thermo Fisher Scientific, Waltham, Mass.) with either non-targeting control or PKMYT1 sequences. […] To approximate cell content, ViaLight (Lonza, Basel, Switzerland) was used according to manufacturer's protocol. Samples were run in triplicate and growth was calculated by determining the percentage of the control raw value for each treatment.

[2] = tested on: NCI-H460; assay: as above; type: cell-based, human; conditions: for dose response curves in control (CT) versus PKMYT1 siRNA transfected cells / pEC50: 72 hours; for pEC50: Homo sapiens, NCI-H460, 72 h, n=3, read-out: anti-proliferative EC50
Description: as §1

[3] = tested on: A427 xenograft; assay: In vivo efficacy, xenograft; design: species or system mice; conditions: 60 mg/kg BID, 28 days
Excerpt: (§2) CD-1 Nu/Nu female mice aged 5-6 weeks were obtained from Charles River Laboratories (Wilmington, Del.) and housed in Applicants animal care facility at standard laboratory conditions and fed 2018S autoclaveable diet (Harlan Laboratories, Indianapolis, Ind.) and water ad libitum. The protocol was approved by Applicants' in-house animal care and use committee. Mice were inoculated with cells (1:1 Matrigel:PBS) subcutaneously (SC) into the right flank. […] Tumor volume and body weights were recorded bi-weekly.

[4] = tested on: SK-MES-1 NSCLC model; assay: In vivo efficacy, xenograft; design: species or system mice; conditions: single agent, 60 mg/kg BID
Excerpt: as §2

[5] = tested on: NCI-H2122 NSCLC model; assay: In vivo efficacy, xenograft; design: species or system mice; conditions: single agent
Excerpt: as §2

[6] = tested on: A431 epidermoid tumor model; assay: In vivo efficacy, xenograft; design: species or system mice; conditions: single agent
Excerpt: as §2

[7] = tested on: LoVo colorectal tumor model; assay: In vivo efficacy, xenograft; design: species or system mice; conditions: single agent, 60 mg/kg BID; treatment stopped on day 13
Excerpt: as §2

[8] = tested on: pCDK1^Y15; assay: Western blot, WEE1 substrate phosphorylation; type: cell-based, human; conditions: all six cell lines; 2 hours
Excerpt: (§3) Cells were lysed in mammalian protein extraction reagent (MPER, Thermo Fisher 78505, Waltham, Mass.) and then subjected to SDS-PAGE and transferred onto nitrocellulose or PVDF membranes. Antibodies used for Western blotting are from the following sources: total CDK1, pCDK1^Y15, pCDK1^T14, pCHK1^S345, pStathmin^S38, pLaminA/C^S22, pCDK substrate motif, γH2AX, Cyclin A, and total PKMYT1 from Cell Signaling Technologies (Beverly, Mass.); actin-HRP from Santa Cruz Biotechnology (Santa Cruz, Calif.); secondary HRP-conjugated anti-mouse and rabbit antibodies from GE Healthcare (Waukesha, Wis.). Blots were exposed with SuperSignal West Femto chemiluminescent substrate (Thermo Fisher Pierce, Waltham, Mass.).

[9] = tested on: A2058 cells; assay: Flow cytometry for mitotic marker pHH3; type: cell-based, human; conditions: EC90 concentration; 24 hours
Description: (§4) To detect DNA double strand breaks, cells were stained with a FITC-conjugated anti-γH2AX (S139) antibody (kit 17-344, Millipore, Billerica, Mass.) after having been fixed overnight in ice-cold 70% ethanol Propidium iodide (PI)/RNase solution (BD Biosciences, Franklin Lakes, N.J.) was used to detect total DNA content. For studies interrogating premature mitosis, an anti-pHH3-Alexa 647 antibody (BD Biosciences 558217) was added.

[10] = tested on: HT-29 cells; assay: Flow cytometry for mitotic marker pHH3; type: cell-based, human; conditions: EC90 concentration; 24 hours
Description: as §4

[11] = tested on: LoVo cells; assay: Flow cytometry for mitotic marker pHH3; type: cell-based, human; conditions: EC90 concentration; 24 hours
Description: as §4

[12] = tested on: 522 cancer cell lines; assay: Cellular proliferation assay screen (CellTiter-Glo, 96 hours); type: cell-based, human; conditions: for pEC50: Homo sapiens, 96 h
Description: (§5) All cancer cell lines were grown in medium recommended by the cell line vendor (ATCC). Tissue culture media, serum, and supplements were purchased from Sigma-Aldrich® (St. Louis, Mo.). For the proliferation assay screen (FIG. 1), cells were plated in 384-well tissue culture plates and grown under compound or vehicle treatment. After 96 hours, CellTiter-Glo (Promega, Madison, Wis.) was used according to the manufacturer's protocol to approximate cell content. Samples were run in triplicate and growth was calculated as the CellTiter-Glo raw value of treated samples relative to vehicle-treated control wells.

[13] = tested on: TOV21G ovarian cancer cells; assay: Flow cytometry for DNA double strand breaks (γH2AX) and BrdU uptake; type: cell-based, human; conditions: 150 nM
Description: (§6) To detect DNA double strand breaks, cells were stained with a FITC-conjugated anti-γH2AX (S139) antibody (kit 17-344, Millipore, Billerica, Mass.) after having been fixed overnight in ice-cold 70% ethanol Propidium iodide (PI)/RNase solution (BD Biosciences, Franklin Lakes, N.J.) was used to detect total DNA content. For studies interrogating premature mitosis, an anti-pHH3-Alexa 647 antibody (BD Biosciences 558217) was added. For synchronization studies, cells were incubated in serum-free medium for 36 hours, followed by replenishment with 20% FBS. One hour prior to each harvest, cells were pulsed with 10 μM bromodeoxyuridine (BrdU). Cells were fixed and stained for BrdU and DNA content with an anti-BrdU FITC-conjugated antibody and 7-aminoactinomycin-D (7-AAD) dye, respectively, according to the instructions in the BD Pharmingen™ FITC BrdU Flow Kit (BD Biosciences, Franklin Lakes, N.J.). All cytometry data were collected on the BD LSR II flow cytometer using the BD FACS Diva™ software (BD Biosciences, Franklin Lakes, N.J.), and the results were analyzed in FlowJo version 7.5.

[14] = tested on: A427 non-small cell lung cancer cell line; assay: Proliferation assay; type: cell-based; conditions: Homo sapiens, A-427
Description: as §5

[15] = tested on: KNS62; assay: Proliferation assay; type: cell-based; conditions: Homo sapiens, KNS-62
Description: as §5

[16] = tested on: NCI-H460; assay: Proliferation assay; type: cell-based; conditions: Homo sapiens
Description: as §5

[17] = tested on: A431; assay: Proliferation assay; type: cell-based; conditions: Homo sapiens, A-431
Description: as §5

[18] = tested on: ES-2; assay: Proliferation assay; type: cell-based; conditions: Homo sapiens
Description: as §5

[19] = tested on: A2058 cells; assay: Flow cytometry for γH2AX at EC90; type: cell-based, human; conditions: EC90 concentration; 24 hours
Description: as §4

[20] = tested on: HT-29 cells; assay: Flow cytometry for γH2AX at EC90; type: cell-based, human; conditions: EC90 concentration; 24 hours
Description: as §4

[21] = tested on: LoVo cells; assay: Flow cytometry for γH2AX at EC90; type: cell-based, human; conditions: EC90 concentration; 24 hours
Description: as §4

[22] = tested on: ES-2 cells; assay: Cell synchronization study, S-phase population (BrdU); type: cell-based, human
Description: For synchronization studies, cells were incubated in serum-free medium for 36 hours, followed by replenishment with 20% FBS. One hour prior to each harvest, cells were pulsed with 10 μM bromodeoxyuridine (BrdU). Cells were fixed and stained for BrdU and DNA content with an anti-BrdU FITC-conjugated antibody and 7-aminoactinomycin-D (7-AAD) dye, respectively, according to the instructions in the BD Pharmingen™ FITC BrdU Flow Kit (BD Biosciences, Franklin Lakes, N.J.). All cytometry data were collected on the BD LSR II flow cytometer using the BD FACS Diva™ software (BD Biosciences, Franklin Lakes, N.J.), and the results were analyzed in FlowJo version 7.5.

[23] = tested on: pCHK1^S345; assay: Western blot, DNA damage response marker; type: cell-based, human; conditions: 2 hours
Excerpt: as §3

[24] = tested on: ES-2 cells; assay: Flow cytometry for γH2AX in serum-starved cells with or without FBS; type: cell-based, human; conditions: 500 nM; 24 hours; 20% FBS
Description: as §6

[25] = twice daily (BID) dosing
Excerpt: as §2

[26] = tested on: pCDK1^T14; assay: Western blot, CDK1 T14 phosphorylation; type: cell-based, human; conditions: six cell lines, possible exception of A427; 2 hours
Excerpt: as §3

[27] = tested on: colorectal cancer cell lines; assay: Cellular proliferation assay screen (CellTiter-Glo, 96 hours); type: cell-based; conditions: Homo sapiens, n=66
Description: as §5

[28] = tested on: neuroblastoma tumor cell lines; assay: as above; type: cell-based; conditions: Homo sapiens, n=7
Description: as §5

SMILES: O=C(NOC[C@H](O)CO)c1ccc(F)c(F)c1Nc1ccc(I)cc1F [PD-0325901, reference compound]
- dose response curves in control (CT) versus PKMYT1 siRNA transfected cells [1]: identical dose response curves
- dose response curves in control (CT) versus PKMYT1 siRNA transfected cells [2]: identical dose response curves

SMILES: C=CCn1c(=O)c2cnc(Nc3ccc(N4CCN(C)CC4)cc3)nc2n1-c1cccc(C(C)(C)O)n1 [WEE1-1, 2-allyl-1-[6-(1-hydroxy-1-methylethyl)pyridin-2-yl]-6-{[4-(4-methylpiperazin-1-yl)phenyl]amino}-1,2-dihydro-3H-pyrazolo[3,4-d]pyrimidin-3-one]
- maximal effect of treatment upon PKMYT1 depletion [1]: not affected
- pEC50 ([1]; PKMYT1 knocked down): 7.03
- pEC50 ([1]; non-targeting control siRNA): 6.31
- maximal effect of treatment upon PKMYT1 depletion [2]: not affected
- pEC50 ([2]; PKMYT1 knocked down): 6.98
- pEC50 ([2]; non-targeting control siRNA): 6.17
- final volumes of individual treated tumors versus initial volumes ([3]; all 10 tumors): smaller than their initial volumes
- regression, final volume as % of the initial mean tumor volume ([3]; n=10): approximately 50%
- Tumor growth inhibition (TGI) [4]: 92%
- TGI [5]: 64%
- TGI [6]: 88%
- tumor regression [7]: 13%
- effect on pCDK1^Y15 [8]: dose-dependent reduction
- percentage of pHH3 positive cells [9]: increased
- mitotic (pHH3 positive) population with 4N DNA [10]: 43%
- mitotic (pHH3 positive) population with <4N DNA [10]: 23%
- percentage of pHH3 positive cells [11]: increased
- response on an adjusted scale (cell lines that were killed) ([12]; 450 nM, 33 of 305 cell lines, 96-hour proliferation assay, 0.25 or less = cell death): < 0.25
- pEC50 ([12]; lower end of range, 2% (9/522) of cell lines): ≥ 7.00
- pEC50 ([12]; upper end of range, 19% (98/522) of cell lines): ≤ 6.00
- range of anti-proliferative EC50s ([12]; across cell lines screened): at least 10 fold
- share of DNA damage detected in BrdU-positive cells ([13]; 2 hours): 95%
- share of DNA damage detected in BrdU-positive cells ([13]; 6 hours): 92%
- cells staining positive for γH2AX ([13]; two hours of treatment, 1% to 2% in untreated growing cells): 23%
- pEC50 [14]: 6.94
- pEC50 [15]: 6.31
- pEC50 [16]: 6.27
- pEC50 [17]: 6.77
- pEC50 [18]: 6.59
- H2AX-positive cell population [19]: 8%
- H2AX-positive cell population [20]: 59%
- H2AX-positive cell population [21]: 27%
- change in the S-phase population by 8 hours ([22]; 500 nM with 20% FBS): no detectable change
- peak S-phase population ([22]; 500 nM with 20% FBS after 36 hours serum withdrawal): about 50%
- time of peak S-phase population post-FBS ([22]; 500 nM with 20% FBS, vehicle peak at 12 to 14 hours): 24 h
- lowest concentration with evidence of increased pCHK1^S345 ([23]; ES-2, A2058, A431 and A427): 50 nM
- activation of the DDR (pCHK1^S345) ([23]; all six cell lines (ES-2, A2058, A431, A427, KNS62, NCI-H460)): dose-dependent activation of the DDR
- degree of DNA double strand breaks (γH2AX) under mitogen stimulation versus cells not restimulated [24]: appreciably larger
- maximum tolerated dose (MTD) [25]: 60 mg per kg
- effect on pCDK1^T14 [26]: did not observe a WEE1-1-dependent effect
- pEC50 ([27]; read-out: EC50 range): ≤ 6.77
- pEC50 ([27]; read-out: mean EC50): 5.94
- pEC50 ([28]; read-out: EC50 range): 6.35 to 6.92
- pEC50 ([28]; read-out: mean EC50): 6.55

SMILES: N.N.O=C([O-])C1(C(=O)[O-])CCC1.[Pt+2] [carboplatin, reference compound]
- dose response curves in control (CT) versus PKMYT1 siRNA transfected cells [1]: identical dose response curves
- dose response curves in control (CT) versus PKMYT1 siRNA transfected cells [2]: identical dose response curves

SMILES: COc1cccc2c1C(=O)c1c(O)c3c(c(O)c1C2=O)C[C@@](O)(C(=O)CO)C[C@@H]3O[C@H]1C[C@H](N)[C@H](O)[C@H](C)O1 [doxorubicin, reference compound]
- dose response curves in control (CT) versus PKMYT1 siRNA transfected cells [1]: identical dose response curves
- dose response curves in control (CT) versus PKMYT1 siRNA transfected cells [2]: identical dose response curves
